Experimental data taken from patent US20240360122A1, “POLYMORPHIC FORMS AND SALTS OF A GLP-1R AGONIST” (Terns (Suzhou) Biotechnology Co., Ltd., priority 2023, published 2024).
Structures can show the parent of a compound that is named as a salt.

Key:
Format in all cases: physicochemical
[1] = Solid state stability at 25° C./60% RH and 40° C./75% RH for 1 week; details: for HPLC peak Area, RRT 1.00: main peak; for solid-state stability: form change and purity decrease: 25° C./60% RH/open and 40° C./75% RH/open
Protocol: Each sample was added into a glass vial, sealed by parafilm with several holes, and kept under tested conditions. After one week, samples were taken for XRPD and HPLC purity test.

[2] = Kinetic solubility in water and bio-relevant media (SGF, FaSSIF, FeSSIF) at 37° C.; details: for FC: Form change: residual solids by XRPD; for form change of residual solids (XRPD) after solubility test: all the media (H2O, SGF, FaSSIF, FeSSIF), after 24 hrs; for S: Solubility: calculated by freeform
Protocol: Add 4 mL of medium (H2O, SGF, FaSSIF and FeSSIF). • Rolled at 37° C. (˜25 rpm). Sampling at 1, 2, 4 and 24 hrs. • At each time-point, sampled 0.8 mL of solution or suspension into a centrifuge tube prior to centrifugation (12000 rpm, 37° C., 5 min) and filtration through 0.45 μm PTFE membrane. • Tested pH and concentration for the filtrate. Analyze residual solids by XRPD.
0.1 g of NaCl and 0.05 g of Triton X-100 were weighed into a 50-mL volumetric flask. Purified water was added to dissolve the solid. 67.5 μL HCl (38%, 12M) was added after the solid was dissolved completely. pH was then adjusted to 1.8 using HCl (1 M) or NaOH (1 M). Purified water was added to the volume.
(§1) 0.17 g of anhydrous NaH2PO4, 0.021 g of NaOH and 0.31 g of NaCl were weighed into a 50-mL volumetric flask. ˜48 mL purified water was added to dissolve the solid. pH was adjusted to 6.5 using 1M HCl or 1M NaOH. Purified water was then added to the volume. 0.11 g of SIF powder was added into the volumetric flask.
as §1, with “0.41 mL” for “0.17 g”, “acetic acid, 0.20” for “anhydrous NaH2PO4, 0.021”, “0.59” for “0.31”, “5.0” for “6.5”, “0.56” for “0.11”

[3] = Hygroscopicity by DVS at 25° C.; details: for water uptake (DVS) / Water uptake at 25° C./80% RH: 25° C./80% RH; for hygroscopicity / Water uptake at 25° C./80% RH: DVS; for hygroscopicity: 25° C.; for For change after DVS: XRPD after DVS test
Protocol: DVS was measured via a SMS (Surface Measurement Systems) DVS Intrinsic. The relative humidity at 25° C. were calibrated against deliquescence point of LiCl, Mg(NO3)2 and KCl.

## N#Cc1ccc(COc2cccc(C3CCN(Cc4nc5ccc(C(=O)O)cc5n4Cc4cncs4)CC3)n2)c(F)c1 [Fumarate Type A]
[1]; 25° C./60% RH, 1 week
  HPLC peak Area, RRT 0.73: 0.14%
  HPLC peak Area, RRT 0.80: 0.05%
  HPLC peak Area, RRT 0.83: 1.98%
  HPLC peak Area, RRT 0.90: 0.10%
  HPLC peak Area, RRT 0.99: 0.06%
  HPLC peak Area, RRT 1.05: 0.28%
  HPLC peak Area, RRT 1.10: 0.89%
  HPLC peak Area, RRT 1.12: 0.06%
  HPLC peak Area, RRT 1.15: 0.25%
  HPLC peak Area, RRT 1.34: 0.07%
  HPLC peak Area, RRT 1.00: 96.13%
[1]; 25° C./60% RH/Open/1 week
  Form change: No
  Purity: 96.13 Area %
[1]; 1 week
  solid-state stability: form change and purity decrease: no form change or significant purity decrease
[1]; 40° C./75% RH, 1 week
  HPLC peak Area, RRT 0.73: 0.13%
  HPLC peak Area, RRT 0.80: <0.05%
  HPLC peak Area, RRT 0.83: 1.89%
  HPLC peak Area, RRT 0.90: 0.09%
  HPLC peak Area, RRT 0.99: <0.05%
  HPLC peak Area, RRT 1.05: 0.29%
  HPLC peak Area, RRT 1.10: 0.87%
  HPLC peak Area, RRT 1.12: 0.05%
  HPLC peak Area, RRT 1.15: 0.26%
  HPLC peak Area, RRT 1.34: 0.06%
  HPLC peak Area, RRT 1.00: 96.37%
[1]; 40° C./75% RH/Open/1 week
  Form change: No
  Purity: 96.37 Area %
[1]; Initial
  HPLC peak Area, RRT 0.73: 0.13%
  HPLC peak Area, RRT 0.80: <0.05%
  HPLC peak Area, RRT 0.83: 1.91%
  HPLC peak Area, RRT 0.90: 0.09%
  HPLC peak Area, RRT 0.99: <0.05%
  HPLC peak Area, RRT 1.05: 0.27%
  HPLC peak Area, RRT 1.10: 0.87%
  HPLC peak Area, RRT 1.12: 0.05%
  HPLC peak Area, RRT 1.15: 0.24%
  HPLC peak Area, RRT 1.34: 0.06%
  Purity: 96.37 Area %
  HPLC peak Area, RRT 1.00: 96.37%
[2]; FaSSIF, 37° C., 1 hr
  FC: Form change: No
[2]; FaSSIF, 37° C., 2 hrs
  FC: Form change: No
[2]; FaSSIF, 37° C., 4 hrs
  FC: Form change: No
[2]; FaSSIF, 37° C., 24 hrs
  FC: Form change: No
[2]; FeSSIF, 37° C., 1 hr
  FC: Form change: No
[2]; FeSSIF, 37° C., 2 hrs
  FC: Form change: No
[2]; FeSSIF, 37° C., 4 hrs
  FC: Form change: No
[2]; FeSSIF, 37° C., 24 hrs
  FC: Form change: No
[2]; H2O, 37° C., 1 hr
  FC: Form change: No
[2]; H2O, 37° C., 2 hrs
  FC: Form change: No
[2]; H2O, 37° C., 4 hrs
  FC: Form change: No
[2]; H2O, 37° C., 24 hrs
  FC: Form change: No
[2]; SGF, 37° C., 1 hr
  FC: Form change: No
[2]; SGF, 37° C., 2 hrs
  FC: Form change: No
[2]; SGF, 37° C., 4 hrs
  FC: Form change: No
[2]; SGF, 37° C., 24 hrs
  FC: Form change: No
[2]
  form change of residual solids (XRPD) after solubility test: No form change
[2]; all the media, 37° C.
  solubility compared with the other selected salts: lowest solubility
[3]
  water uptake (DVS): 0.12%
  hygroscopicity: non-hygroscopic
  Water uptake at 25° C./80% RH: 0.12 wt %
  For change after DVS: No
  form change after DVS test (XRPD): no form change

## N#Cc1ccc(COc2cccc(C3CCN(Cc4nc5ccc(C(=O)O)cc5n4Cc4cncs4)CC3)n2)c(F)c1 [Potassium salt Type A]
[1]; 25° C./60% RH, 1 week
  HPLC peak Area, RRT 0.70: 0.06%
  HPLC peak Area, RRT 0.73: 0.15%
  HPLC peak Area, RRT 0.83: 1.80%
  HPLC peak Area, RRT 0.90: 0.09%
  HPLC peak Area, RRT 0.99: 0.06%
  HPLC peak Area, RRT 1.05: 0.27%
  HPLC peak Area, RRT 1.10: 0.67%
  HPLC peak Area, RRT 1.11: 0.05%
  HPLC peak Area, RRT 1.12: 0.06%
  HPLC peak Area, RRT 1.15: 0.21%
  HPLC peak Area, RRT 1.34: 0.10%
  HPLC peak Area, RRT 1.00: 96.47%
[1]; 25° C./60% RH/Open/1 week
  Form change: No
  Purity: 96.47 Area %
[1]; 1 week
  solid-state stability: form change and purity decrease: no form change or significant purity decrease
[1]; 40° C./75% RH, 1 week
  HPLC peak Area, RRT 0.70: 0.05%
  HPLC peak Area, RRT 0.73: 0.14%
  HPLC peak Area, RRT 0.83: 1.78%
  HPLC peak Area, RRT 0.90: 0.09%
  HPLC peak Area, RRT 0.99: <0.05%
  HPLC peak Area, RRT 1.05: 0.28%
  HPLC peak Area, RRT 1.10: 0.66%
  HPLC peak Area, RRT 1.11: 0.06%
  HPLC peak Area, RRT 1.12: 0.06%
  HPLC peak Area, RRT 1.15: 0.22%
  HPLC peak Area, RRT 1.34: 0.07%
  HPLC peak Area, RRT 1.00: 96.58%
[1]; 40° C./75% RH/Open/1 week
  Form change: No
  Purity: 96.58 Area %
[1]; Initial
  HPLC peak Area, RRT 0.70: 0.05%
  HPLC peak Area, RRT 0.73: 0.16%
  HPLC peak Area, RRT 0.83: 1.84%
  HPLC peak Area, RRT 0.90: 0.09%
  HPLC peak Area, RRT 0.99: 0.05%
  HPLC peak Area, RRT 1.05: 0.27%
  HPLC peak Area, RRT 1.10: 0.70%
  HPLC peak Area, RRT 1.11: 0.05%
  HPLC peak Area, RRT 1.12: 0.06%
  HPLC peak Area, RRT 1.15: 0.22%
  HPLC peak Area, RRT 1.34: 0.10%
  Purity: 96.41 Area %
  HPLC peak Area, RRT 1.00: 96.41%
[2]; FaSSIF, 37° C., 1 hr
  S: Solubility: 24 µg/mL
  FC: Form change: No
[2]; FaSSIF, 37° C., 2 hrs
  S: Solubility: 21 µg/mL
  FC: Form change: No
[2]; FaSSIF, 37° C., 4 hrs
  S: Solubility: 22 µg/mL
  FC: Form change: No
[2]; FaSSIF, 37° C., 24 hrs
  S: Solubility: 29 µg/mL
  FC: Form change: Yes
[2]; FeSSIF, 37° C., 1 hr
  S: Solubility: 38 µg/mL
  FC: Form change: No
[2]; FeSSIF, 37° C., 2 hrs
  S: Solubility: 35 µg/mL
  FC: Form change: No
[2]; FeSSIF, 37° C., 4 hrs
  S: Solubility: 34 µg/mL
  FC: Form change: No
[2]; FeSSIF, 37° C., 24 hrs
  S: Solubility: 21 µg/mL
  FC: Form change: Yes
[2]; H2O, 37° C., 1 hr
  S: Solubility: 920 µg/mL
  FC: Form change: No
[2]; H2O, 37° C., 2 hrs
  S: Solubility: 1700 µg/mL
  FC: Form change: Yes
[2]; H2O, 37° C., 4 hrs
  S: Solubility: 3800 µg/mL
  FC: Form change: Yes
[2]; H2O, 37° C., 24 hrs
  S: Solubility: 4900 µg/mL
  FC: Form change: Yes
[2]; SGF, 37° C., 1 hr
  S: Solubility: 280 µg/mL
  FC: Form change: Yes
[2]; SGF, 37° C., 2 hrs
  S: Solubility: 69 µg/mL
  FC: Form change: Yes
[2]; SGF, 37° C., 4 hrs
  S: Solubility: 39 µg/mL
  FC: Form change: Yes
[2]; SGF, 37° C., 24 hrs
  S: Solubility: 50 µg/mL
  FC: Form change: Yes
[2]
  form change of residual solids (XRPD) after solubility test: form change was observed
[3]
  water uptake (DVS): 0.62%
  hygroscopicity: slightly hygroscopic
  Water uptake at 25° C./80% RH: 0.62 wt %
  For change after DVS: No
  form change after DVS test (XRPD): no form change
